Source: publication PMC8025909, “Repurposing of Sitagliptin- Melittin Optimized Nanoformula against SARS-CoV-2; Antiviral Screening and Molecular Docking Studies” (Pharmaceutics, 2021)

Biological target: T1, SARS-CoV-2 3CL Protease (3C-like protease, Mpro, 3CLpro) (Severe acute respiratory syndrome coronavirus 2, UniProt P0DTD1)
T1 construct: gene rep; full-length mature nsp5 a.a; supplier apparently BPS Bioscience
Test: biochemical

N[C@@H](CC(=O)N1CCn2c(nnc2C(F)(F)F)C1)Cc1cc(F)c(F)cc1F [sitagliptin]
IC50: 6.914 ± 0.034 µM
